Test results: ChEMBL document CHEMBL6083262, “Stereorandomized Oncocins with Preserved Ribosome Binding and Antibacterial Activity” (J Med Chem, 2024)
In brackets after ≈: the same amount, converted by molar mass. Activity calls are given as the source filed them. The calls are words filed in the database; no cut-off is given here. Non-standard residues stand in square brackets, D forms with d. Residues, ends and D or L forms follow the SMILES beside them. ξ: configuration not given here. ξY = NC(Cc1ccc(O)cc1)C(=O)O; ξR = N=C(N)NCCCC(N)C(=O)O; ξN = NC(=O)CC(N)C(=O)O; ξI = CCC(C)C(N)C(=O)O; ξP = O=C(O)C1CCCN1

Columns and labels:
Klebsiella pneumoniae [1] = assay: Antimicrobial activity against Klebsiella pneumoniae NCTC 418 incubated for 16 to 20 hrs in full muller hinton medium by broth microdilution method; type: functional; settings: time 16-20 hrs
Pseudomonas aeruginosa [2] = assay: Antimicrobial activity against Pseudomonas aeruginosa PAO1 incubated for 16 to 20 hrs in full muller hinton medium by broth microdilution method; type: functional; settings: time 16-20 hrs
Acinetobacter baumannii = assay: Antimicrobial activity against Acinetobacter baumannii ATCC 19606 incubated for 16 to 20 hrs in full muller hinton medium by broth microdilution method; type: functional; settings: time 16-20 hrs
Staphylococcus aureus [3] = assay: Antimicrobial activity against methicillin-resistant Staphylococcus aureus COL incubated for 16 to 20 hrs in full muller hinton medium by broth microdilution method; type: functional; settings: time 16-20 hrs
Klebsiella pneumoniae [4] = assay: Antimicrobial activity against Klebsiella pneumoniae NCTC 418 incubated for 16 to 20 hrs in 12.5 % muller hinton medium by broth microdilution method; type: functional; settings: time 16-20 hrs
Pseudomonas aeruginosa [5] = assay: Antimicrobial activity against Pseudomonas aeruginosa PAO1 incubated for 16 to 20 hrs in 12.5 % muller hinton medium by broth microdilution method; type: functional; settings: time 16-20 hrs
Staphylococcus aureus [6] = assay: Antimicrobial activity against methicillin-resistant Staphylococcus aureus COL incubated for 16 to 20 hrs in 12.5 % muller hinton medium by broth microdilution method; type: functional; settings: time 16-20 hrs
[7] = Hemolytic activity in human RBC incubated for 4 hrs; type: toxicity, cell-based; settings: erythrocyte
rRNA = assay: Binding affinity to [gamma32 P-ATP] labeled Escherichia coli MG1655 23S ribosomal RNA (5-CCCTTGGGACCTACTTC-3') at U2506 position assessed as increase in band intensity at 1 uM incubated for 2.5 hrs in full muller hinton medium by CMCT based gel electrophoresis; type: nucleic-acid assay
Escherichia coli [8] = assay: Bacteriostatic activity against Escherichia coli at 8 times MIC in full muller hinton medium by Time-kill assay; type: functional, organism-based
Klebsiella pneumoniae [9] = assay: Bacteriostatic activity against Klebsiella pneumoniae at 8 times MIC in full muller hinton medium by Time-kill assay; type: functional, organism-based
Escherichia coli [10] = assay: Bacteriostatic activity against Escherichia coli assessed as detachment of inner membrane from outer membrane by measuring a large void at 8 times MIC in full muller hinton medium by transmission electron microscopic analysis; type: functional, organism-based
Klebsiella pneumoniae [11] = assay: Bacteriostatic activity against Klebsiella pneumoniae assessed as detachment of inner membrane from outer membrane by measuring a large void at 8 times MIC in full muller hinton medium by transmission electron microscopic analysis; type: functional, organism-based
Escherichia coli [12] = assay: Bacteriostatic activity against Escherichia coli assessed as small intracellular vesicles at 8 times MIC in full muller hinton medium by transmission electron microscopic analysis; type: functional, organism-based
Klebsiella pneumoniae [13] = assay: Bacteriostatic activity against Klebsiella pneumoniae assessed as small intracellular vesicles at 8 times MIC in full muller hinton medium by transmission electron microscopic analysis; type: functional, organism-based
Escherichia coli [14] = assay: Bacteriostatic activity against Escherichia coli assessed as membrane perturbation at 8 times MIC in full muller hinton medium by transmission electron microscopic analysis; type: functional, organism-based
Klebsiella pneumoniae [15] = assay: Bacteriostatic activity against Klebsiella pneumoniae assessed as membrane perturbation at 8 times MIC in full muller hinton medium by transmission electron microscopic analysis; type: functional, organism-based
Pseudomonas aeruginosa [16] = assay: Antibacterial activity against multidrug-resistant Pseudomonas aeruginosa PA14 incubated for 16 to 20 hrs in full muller hinton medium by broth microdilution method; type: functional; settings: time 16-20 hrs
Pseudomonas aeruginosa [17] = assay: Antibacterial activity against multidrug-resistant Pseudomonas aeruginosa PA14 4.13 harboring phoQ mutant incubated for 16 to 20 hrs in full muller hinton medium by broth microdilution method; type: functional; settings: time 16-20 hrs
Pseudomonas aeruginosa [18] = assay: Antibacterial activity against multidrug-resistant Pseudomonas aeruginosa PA14 4.18 harboring pmrB mutant incubated for 16 to 20 hrs in full muller hinton medium by broth microdilution method; type: functional; settings: time 16-20 hrs
Pseudomonas aeruginosa [19] = assay: Antibacterial activity against multidrug-resistant Pseudomonas aeruginosa PA14 2P4 harboring pmrB mutant incubated for 16 to 20 hrs in full muller hinton medium by broth microdilution method; type: functional; settings: time 16-20 hrs
Pseudomonas aeruginosa [20] = assay: Antibacterial activity against multidrug-resistant Pseudomonas aeruginosa clinical isolate ZEM-1A incubated for 16 to 20 hrs in full muller hinton medium by broth microdilution method; type: functional; settings: time 16-20 hrs
Pseudomonas aeruginosa [21] = assay: Antibacterial activity against multidrug-resistant Pseudomonas aeruginosa clinical isolate ZEM9A incubated for 16 to 20 hrs in full muller hinton medium by broth microdilution method; type: functional; settings: time 16-20 hrs
Escherichia coli [22] = assay: Antimicrobial activity against Escherichia coli W3110 incubated for 16 to 20 hrs in full muller hinton medium by broth microdilution method; type: functional; settings: time 16-20 hrs
Escherichia coli [23] = assay: Antimicrobial activity against Escherichia coli W3110 incubated for 16 to 20 hrs in 12.5 % muller hinton medium by broth microdilution method; type: functional; settings: time 16-20 hrs

Work on CC[C@H](C)[C@H](NC(=O)[C@H](CCCNC(=N)N)NC(=O)[C@H](CCCNC(=N)N)NC(=O)[C@@H]1CCCN1C(=O)[C@@H]1CCCN1C(=O)[C@H](CCCNC(=N)N)NC(=O)[C@@H]1CCCN1C(=O)[C@H](CCCNC(=N)N)NC(=O)[C@@H]1CCCN1C(=O)[C@H](CC(C)C)NC(=O)[C@H](Cc1ccc(O)cc1)NC(=O)[C@H]1CCCN1C(=O)[C@H]1CCCN1C(=O)[C@H](CCCCN)NC(=O)[C@H](CC(=O)O)NC(=O)[C@@H](N)C(C)C)C(=O)N[C@@H](Cc1ccc(O)cc1)C(=O)N[C@@H](CC(N)=O)C(=O)N[C@@H](CCCNC(=N)N)C(N)=O (H-VDK[dP][dP]YLPRPRPPRRIYNR-NH2) yielded an MIC (Klebsiella pneumoniae [1]) of over 64 µg/mL, an MIC (Pseudomonas aeruginosa [2]) of over 64 µg/mL and an MIC (Acinetobacter baumannii) of over 64 µg/mL. For the same compound, the MIC (Staphylococcus aureus [3]) was over 64 µg/mL, the MIC (Klebsiella pneumoniae [4]) was over 16 µg/mL and the MIC (Pseudomonas aeruginosa [5]) was over 16 µg/mL. The MIC (Staphylococcus aureus [6]) was over 64 µg/mL and the MHC [7] was over 1000 µg/mL.
H-VDKPPYLPRPRPPRRIYNR-NH2 [ONCOCIN] gave an MIC (Pseudomonas aeruginosa [2]) of over 64 µg/mL, an MIC (Staphylococcus aureus [3]) of over 64 µg/mL and an MHC [7] of over 1000 µg/mL. The Activity (rRNA) was “Active”, the Activity (Escherichia coli [8]) was “Active” and the Activity (Klebsiella pneumoniae [9]) was “Active”. For the same compound, the Activity (Escherichia coli [10]) was “Active”, the Activity (Klebsiella pneumoniae [11]) was “Active” and the Activity (Escherichia coli [12]) was “Active”. The Activity (Klebsiella pneumoniae [13]) was “Active”, the Activity (Escherichia coli [14]) was “Active; Few Membrane Perturbation Observed” and the Activity (Klebsiella pneumoniae [15]) was “Active; Few Membrane Perturbation Observed”. For the same compound, the MIC (Pseudomonas aeruginosa [16]) was over 64 µg/mL, the MIC (Pseudomonas aeruginosa [17]) was over 64 µg/mL and the MIC (Pseudomonas aeruginosa [18]) was over 64 µg/mL. It also gave an MIC (Pseudomonas aeruginosa [19]) of over 64 µg/mL, an MIC (Pseudomonas aeruginosa [20]) of over 64 µg/mL and an MIC (Pseudomonas aeruginosa [21]) of over 64 µg/mL.
Work on CCC(C)C(NC(=O)C(CCCNC(=N)N)NC(=O)C(CCCNC(=N)N)NC(=O)[C@@H]1CCCN1C(=O)[C@@H]1CCCN1C(=O)[C@H](CCCNC(=N)N)NC(=O)[C@@H]1CCCN1C(=O)[C@H](CCCNC(=N)N)NC(=O)[C@@H]1CCCN1C(=O)[C@H](CC(C)C)NC(=O)[C@H](Cc1ccc(O)cc1)NC(=O)[C@@H]1CCCN1C(=O)[C@@H]1CCCN1C(=O)[C@H](CCCCN)NC(=O)[C@H](CC(=O)O)NC(=O)[C@@H](N)C(C)C)C(=O)NC(Cc1ccc(O)cc1)C(=O)NC(CC(N)=O)C(=O)NC(CCCNC(=N)N)C(N)=O (some centres not stated) (H-VDKPPYLPRPRPP[ξR][ξR][ξI][ξY][ξN][ξR]-NH2) yielded an MIC (Escherichia coli [22]) of 8 µg/mL (≈ 3.35 µM), an MIC (Klebsiella pneumoniae [1]) of 4 µg/mL (≈ 1.67 µM) and an MIC (Staphylococcus aureus [3]) of over 64 µg/mL. The MIC (Escherichia coli [23]) was 1 µg/mL (≈ 0.418 µM), the MIC (Staphylococcus aureus [6]) was over 16 µg/mL and the MHC [7] was over 1000 µg/mL.
With CC[C@@H](C)[C@@H](NC(=O)[C@@H](CCCNC(=N)N)NC(=O)[C@H](CCCNC(=N)N)NC(=O)[C@@H]1CCCN1C(=O)[C@@H]1CCCN1C(=O)[C@H](CCCNC(=N)N)NC(=O)[C@@H]1CCCN1C(=O)[C@H](CCCNC(=N)N)NC(=O)[C@@H]1CCCN1C(=O)[C@H](CC(C)C)NC(=O)[C@H](Cc1ccc(O)cc1)NC(=O)[C@@H]1CCCN1C(=O)[C@@H]1CCCN1C(=O)[C@H](CCCCN)NC(=O)[C@H](CC(=O)O)NC(=O)[C@@H](N)C(C)C)C(=O)N[C@H](Cc1ccc(O)cc1)C(=O)N[C@H](CC(N)=O)C(=O)N[C@H](CCCNC(=N)N)C(N)=O (H-VDKPPYLPRPRPPR[dR][dI][dY][dN][dR]-NH2) the MIC (Staphylococcus aureus [3]) was over 64 µg/mL, the MHC [7] was over 1000 µg/mL and the Activity (rRNA) was “Active”. For the same compound, the Activity (Escherichia coli [8]) was “Active”, the Activity (Klebsiella pneumoniae [9]) was “Active” and the Activity (Escherichia coli [10]) was “Active”. For the same compound, the Activity (Klebsiella pneumoniae [11]) was “Active”, the Activity (Escherichia coli [12]) was “Active” and the Activity (Klebsiella pneumoniae [13]) was “Active”. For the same compound, the Activity (Escherichia coli [14]) was “Active; Few Membrane Perturbation Observed”, the Activity (Klebsiella pneumoniae [15]) was “Active; Few Membrane Perturbation Observed” and the MIC (Pseudomonas aeruginosa [16]) was over 64 µg/mL. For the same compound, the MIC (Pseudomonas aeruginosa [19]) was over 64 µg/mL and the MIC (Pseudomonas aeruginosa [21]) was over 64 µg/mL.
CC[C@H](C)[C@H](NC(=O)[C@H](CCCNC(=N)N)NC(=O)[C@H](CCCNC(=N)N)NC(=O)[C@@H]1CCCN1C(=O)[C@@H]1CCCN1C(=O)[C@H](CCCNC(=N)N)NC(=O)[C@@H]1CCCN1C(=O)[C@H](CCCNC(=N)N)NC(=O)[C@@H]1CCCN1C(=O)[C@H](CC(C)C)NC(=O)[C@H](Cc1ccc(O)cc1)NC(=O)C1CCCN1C(=O)C1CCCN1C(=O)[C@H](CCCCN)NC(=O)[C@H](CC(=O)O)NC(=O)[C@@H](N)C(C)C)C(=O)N[C@@H](Cc1ccc(O)cc1)C(=O)N[C@@H](CC(N)=O)C(=O)N[C@@H](CCCNC(=N)N)C(N)=O (some centres not stated) (H-VDK[ξP][ξP]YLPRPRPPRRIYNR-NH2) gave an MIC (Pseudomonas aeruginosa [2]) of over 64 µg/mL, an MIC (Staphylococcus aureus [3]) of over 64 µg/mL and an MIC (Escherichia coli [23]) of 4 µg/mL (≈ 1.67 µM). For the same compound, the MIC (Klebsiella pneumoniae [4]) was 8 µg/mL (≈ 3.35 µM), the MIC (Pseudomonas aeruginosa [5]) was over 16 µg/mL and the MHC [7] was over 1000 µg/mL.
